Source: patent US10681909B2, “Herbicidal triazoles” (FMC Corporation, priority 2014, dated 2020)

Experiments:
[1] = tested on: barnyardgrass; assay: Test C preemergence; type: in vivo, Echinochloa crus-galli; conditions: for Plant response rating (scale of 0 to 100 where 0 is no effect and 100 is complete control): Barnyardgrass, preemergence; for Barnyardgrass plant response rating (0 to 100): Preemergence, visual rating after 13 to 15 d
Outline: (§1)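 Surfactant-containing, non-phytotoxic solvent formulations of each compound were applied either preemergence to seeds in a loam soil–sand blend or postemergence to plants 2 to 18 cm tall (1- to 4-leaf stage). Postemergence plants were grown in peat moss–vermiculite medium.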

[2] = tested on: chamomile; assay: Test D preemergence; type: in vivo, Matricaria inodora; conditions: for Plant response rating: Chamomile: scale 0 to 100
Outline: (§2)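 Visual injury ratings compared with untreated controls, taken 14 to 21 d after treatment in a controlled growth environment. Test chemicals were formulated in a surfactant-containing non-phytotoxic solvent and applied either preemergence to seeds in silt loam soil or postemergence to plants at the 1- to 4-leaf stage.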

[3] = tested on: pigweed; assay: Test D preemergence; type: in vivo, Amaranthus retroflexus; conditions: for Plant response rating: Pigweed: scale 0 to 100
Outline: as §2

[4] = tested on: field poppy; assay: Test D postemergence; type: in vivo, Papaver rhoeas; conditions: scale 0 to 100
Outline: as §2

[5] = tested on: galium; assay: Test D preemergence; type: in vivo, Galium aparine; conditions: for Plant response rating: Galium: scale 0 to 100
Outline: as §2

[6] = tested on: ryegrass, Italian; assay: Test C preemergence; type: in vivo, Lolium multiflorum; conditions: for Ryegrass, Italian plant response rating (0 to 100): Preemergence, visual rating after 13 to 15 d; for Plant response rating (scale of 0 to 100 where 0 is no effect and 100 is complete control): Ryegrass, Italian, preemergence
Outline: as §1

[7] = tested on: pigweed; assay: Test D postemergence; type: in vivo, Amaranthus retroflexus; conditions: scale 0 to 100
Outline: as §2

[8] = tested on: wild mustard; assay: Test D postemergence; type: in vivo, Sinapis arvensis; conditions: scale 0 to 100
Outline: as §2

[9] = tested on: ryegrass, Ital.; assay: Test D postemergence; type: in vivo, Lolium multiflorum; conditions: scale 0 to 100
Outline: as §2

[10] = tested on: wheat, winter; assay: Test D preemergence; type: in vivo, Triticum aestivum; conditions: for Plant response rating: Wheat, Winter: scale 0 to 100
Outline: as §2

[11] = tested on: wheat, spring; assay: Test D preemergence; type: in vivo, Triticum aestivum; conditions: for Plant response rating: Wheat, Spring: scale 0 to 100
Outline: as §2

[12] = tested on: chamomile; assay: Test D postemergence; type: in vivo, Matricaria inodora; conditions: scale 0 to 100
Outline: as §2

[13] = tested on: deadnettle; assay: Test D postemergence; type: in vivo, Lamium amplexicaule; conditions: scale 0 to 100
Outline: as §2

[14] = 16 g ai/ha, 0 is no effect, 100 is complete control

## FC(F)(F)COc1nc(-c2ccccc2)nn1Cc1ccnc(C(F)(F)F)c1 [Compound 24]
[1]; 125 g ai/ha
  Plant response rating (scale of 0 to 100 where 0 is no effect and 100 is complete control): 80
[1]; 250 g ai/ha
  Plant response rating (scale of 0 to 100 where 0 is no effect and 100 is complete control): 85
[1]; 31 g ai/ha
  Barnyardgrass plant response rating (0 to 100): 10
[1]; 62 g ai/ha
  Barnyardgrass plant response rating (0 to 100): 45
[2]; [14]
  Plant response rating (0 to 100), Chamomile: 0
[2]; 31 g ai/ha
  Plant response rating: Chamomile: 35
[2]; 62 g ai/ha
  Plant response rating: Chamomile: 85
[2]; 125 g ai/ha
  Plant response rating: Chamomile: 90
[3]; [14]
  Plant response rating (0 to 100), Pigweed: 95
[3]; 62 g ai/ha
  Plant response rating: Pigweed: 100
[3]; 125 g ai/ha
  Plant response rating: Pigweed: 100
[4]; 16 g ai/ha
  Plant response rating: Field Poppy: 60
[4]; 31 g ai/ha
  Plant response rating: Field Poppy: 75
[4]; 62 g ai/ha
  Plant response rating: Field Poppy: 80
[4]; 125 g ai/ha
  Plant response rating: Field Poppy: 100
[5]; [14]
  Plant response rating (0 to 100), Galium: 55
[5]; 62 g ai/ha
  Plant response rating: Galium: 65
[5]; 125 g ai/ha
  Plant response rating: Galium: 75
[6]; 31 g ai/ha
  Ryegrass, Italian plant response rating (0 to 100): 5
[6]; 62 g ai/ha
  Ryegrass, Italian plant response rating (0 to 100): 15
[6]; 125 g ai/ha
  Plant response rating (scale of 0 to 100 where 0 is no effect and 100 is complete control): 85
[6]; 250 g ai/ha
  Plant response rating (scale of 0 to 100 where 0 is no effect and 100 is complete control): 90
[7]; 16 g ai/ha
  Plant response rating: Pigweed: 95
[7]; 31 g ai/ha
  Plant response rating: Pigweed: 100
[7]; 62 g ai/ha
  Plant response rating: Pigweed: 100
[7]; 125 g ai/ha
  Plant response rating: Pigweed: 100
[8]; 16 g ai/ha
  Plant response rating: Mustard, Wild: 65
[8]; 31 g ai/ha
  Plant response rating: Mustard, Wild: 70
[8]; 62 g ai/ha
  Plant response rating: Mustard, Wild: 100
[8]; 125 g ai/ha
  Plant response rating: Mustard, Wild: 100
[9]; 16 g ai/ha
  Plant response rating: Ryegrass, Ital.: 15
[9]; 31 g ai/ha
  Plant response rating: Ryegrass, Ital.: 25
[9]; 62 g ai/ha
  Plant response rating: Ryegrass, Ital.: 30
[9]; 125 g ai/ha
  Plant response rating: Ryegrass, Ital.: 40
[10]; [14]
  Plant response rating (0 to 100), Wheat, Winter: 15
[10]; 62 g ai/ha
  Plant response rating: Wheat, Winter: 20
[10]; 125 g ai/ha
  Plant response rating: Wheat, Winter: 20
[11]; [14]
  Plant response rating (0 to 100), Wheat, Spring: 15
[11]; 62 g ai/ha
  Plant response rating: Wheat, Spring: 25
[11]; 125 g ai/ha
  Plant response rating: Wheat, Spring: 15
[12]; 16 g ai/ha
  Plant response rating: Chamomile: 30
[12]; 31 g ai/ha
  Plant response rating: Chamomile: 20
[12]; 62 g ai/ha
  Plant response rating: Chamomile: 20
[12]; 125 g ai/ha
  Plant response rating: Chamomile: 30
[13]; 16 g ai/ha
  Plant response rating: Deadnettle: 40
[13]; 31 g ai/ha
  Plant response rating: Deadnettle: 60
[13]; 62 g ai/ha
  Plant response rating: Deadnettle: 70
[13]; 125 g ai/ha
  Plant response rating: Deadnettle: 85
